{"source": "patent US20240002547A1", "about": "“T[…]-TARGETING CONSTRUCTS AND USES THEREOF” (AEBI LTD., priority 2016, published 2024)", "key": {"[1]": {"target": "T1, eEF2 (Human; Yeast derived) (Homo sapiens, UniProt P13639)", "T1 construct": "host or cells: yeast", "test": "ELISA binding of phage-displayed peptides to eEF2 or BSA", "conditions": "M13 phages expressing the peptide; read after 1.5 min and 30 min; BSA negative control", "description": "Binding of Tox 1 and Tox2 to eEF2 was tested by ELISA using eEF2 or BSA as ligands.\n0.25 μg of target proteins, eEF2 (Human; Yeast derived) or BSA (negative control) were applied to several wells of maxisorp plate (NUNC) in 50 μl PBS and incubated over night at 4° C. The solutions were removed, and each well was supplemented with 280 μl blocking solution (BSA 2 mg/ml). The plate was incubated 1 hr at 25° C.\nTo 1.5 ml tubes 100 μl of blocking solution+10^9 pfu (plaque forming units) of M13 phages that express the following peptides: eEF2-binding: RB, LBR1, TB2 (Tox2), Y02, GW (Tox1), DRB, PY, BW were added. The plate was incubated 1 hr at 25° C. The solution were discarded and the wells were washed 7 times with 280 μl washing solution (Tween 20 0.05%).\nEach well was supplemented with 50 μl of HRP/Anti-M13 Monoclonal Conjugate (GE Healthcare) diluted 1:5000. The plate was incubated 1 hr at 25° C. The solutions were discarded and the wells were washed 7 times with 280 μl washing solution (Tween 20 0.05%). Each well was supplemented with 50 μl of TMB (T0440; Sigma).\nThe plate was photographed using a scanner after incubation time of 1.5 min and 30 min."}, "[2]": {"target": "T2, eEF2 (Homo sapiens, UniProt P13639)", "T2 construct": "in vitro transcription/translation system using HeLa Lysate system; host or cells: HeLa lysate (1-Step Human Coupled IVT Kit-DNA)", "test": "in vitro transcription/translation system (HeLa lysate, 1-Step Human Coupled IVT Kit, pCFE-GFP DNA)", "assay_type": "biochemical", "conditions": "peptide 5 μM; 4 hr at 30° C.; versus positive control without peptide and non eEF2-binding control peptide", "description": "The effect of Tox1 and Tox2 was tested in the in vitro transcription/translation system using HeLa Lysate system 1-Step Human Coupled IVT Kit-DNA (ThermoFisher Scientific). The following peptides were tested: GW (Tox1), DRB RB, TB2 (Tox2), and BW. In addition, a non eEF2-binding control peptide, GR, was also tested.\nThe IVT Kit components were mixed, and one portion was taken out to serve as a negative control. The rest of the mix was supplemented with pCFE-GFP DNA. This DNA, when transcribed and translated gives a fluorescence protein, GFP. The extent of fluorescence gives a measure of the extent of protein synthesis.\nThe mix was split into […] aliquots. Each aliquot was supplemented with lml of one concentration of a specific peptide. A positive control was supplemented with lml of PBS. The reaction mixtures were incubated 4 hr at 30° C.\n[…] of PBS were added to each reaction mixtures. The mixtures were transferred to a 96 well black ELISA plate, and the fluorescence was measured at ex/em 482/512 nm."}, "[3]": {"tested_on": "A549", "test": "Viability of A549 cells, alamarBlue", "assay_type": "cell-based, human", "conditions": "all tested concentrations", "description": "(§1) The anti-cancer activity of E13.3 was assessed using several cancer cell lines (A549—human lung carcinoma cell line and FaDu—human pharyngeal carcinoma cell line). The cell cultures were incubated in the presence or absence of E13.3 (at different concentrations) and tested for viability using alamarBlue reagent. The results are presented on FIG. 15."}, "[4]": {"test": "In vivo stability of fluorescently marked peptide in blood after tail vein injection", "conditions": "mice", "description": "The stability of the fluorescently marked peptide E13.3 alone or bound to 8-armed PEG was evaluated in vivo by injecting the compounds to the tail vein of mice. The blood of the animals was analyzed for the presence of the peptide (fluorescence) at different time intervals. It can be clearly seen from the result presented in FIG. 14 that t0.5 of the free peptide is much shorter (about several minutes) than that of the peptides bound to PEG (t0.5 of about 3.5 hours)."}, "[5]": {"tested_on": "NCI-H1650 tumor", "test": "Accumulation of fluorescein-labelled E13.3-PEG in kidney, liver and tumor of xenograft mice", "assay_type": "in vivo", "description": "E13.3-PEG was labeled with Flourescein and injected IV to Xenograft mice bearing subcutaneous NCI-H1650 tumor (lung cancer). Following anesthesia, kidney, liver and tumor were collected at specific time points and the fluorescence was measured."}, "[6]": {"tested_on": "FaDu", "test": "Viability of FaDu cells, alamarBlue", "assay_type": "cell-based, human", "conditions": "all tested concentrations", "description": "as §1"}, "[7]": {"tested_on": "A431 cells", "test": "Toxicity of PEG constructs on A431 cells, microscope images after 48 hours", "assay_type": "cell-based, human", "description": "(§2) A construct comprising a multi-arm-PEG scaffold bound to E13.3 targeting peptide having the sequence SEQ ID NO: 1 ([…]) and a toxin selected from BIMBH3 (referred also as BIM and having the sequence SEQ ID NO: 5 […]) or a combination of Tox1 and Tox2 was generated. The scaffolds were prepared as described in Example 5 and is denoted as PEG-E13.3-Tox1-Tox2 and PEG-13.3-BIM, accordingly\n(§3) A431 cells (human squamous carcinoma express about 100,000 copies of EGFR on each cell) and MCF-7 cells (breast cancer cell expressing about 3,000 copies of EGFR on each cell) were thawed and cultivated to achieve exponentially growing cultures. Cells were collected, counted and seeded at the density of 7,000 cells/well and 5,000 cells/well, respectively, in a 96 well tissue culture plate.\n(§4) The plates were incubated until the next day at the following conditions: 37±1° C., humidified, and 5±0.5% CO2/air, to enable cells adherence to the wells.\n(§5) The cell viability of A549 cell was tested using Alamar Blue viability assay. At the next day following the seeding, Growth Media was replaced with 200 μl Assay Media that contained 2% FBS and Test Items at different concentrations of the construct (1, 3 and 8 μM), or Vehicle Control (PBS; concentration-0). Plates were incubated at 37±1° C., humidified 5±0.5% CO2/air. […]"}, "[8]": {"tested_on": "MCF-7 cells", "test": "Toxicity of PEG constructs on MCF-7 cells, microscope images after 48 hours", "assay_type": "cell-based, human", "description": "as §2, §3, §4, §5"}, "[9]": {"target": "T3, human EGFR (Homo sapiens, UniProt P00533)", "T3 construct": "human EGFR in human epidermoid carcinoma cell line A431; endogenous in cells; host or cells: A431", "test": "EGFR autophosphorylation ELISA in A431 cells", "assay_type": "cell-based", "description": "The effect of several peptides on the phosphorylation levels of human EGFR in human epidermoid carcinoma cell line A431 was assessed by ELISA test. Briefly, exponentially growing A431 cell culture were detaches from the flask with 0.25% trypsin/EDTA solution, and 200 μl of cell suspension were transferred to 96-well plates at the concentration of 2×10^5 cells/ml and grown for about 3 days. Following medium exchange, 50 μl EGF dilutions and EGF+peptides (50 ng/ml and 0.2 mg/ml, respectively) were added. The plate was incubated for 7.5 min at 37° C. EGF-containing medium was removed and the cells were fixed by 150 ul of fixing solution and incubated for 20 min. at room temperature, following which the plate was washed 2 times with triton washing solution. The level of phosphorylates was assessed by incubation with phospho-EGFR (Tyr1045) antibody as a primary antibody and Anti-rabbit IgG as a secondary antibody. […] The normalized percent of inhibition (of the EGFR auto-phosphorylation is presented in FIG. 11 and Table 4. The normalized percent of inhibition is calculated as the fluorescence signal of the test item divided by the fluorescence signal of the control that contains no test item, with the same concentration of EGF.\nEfficacy of different concentration of the selected peptide was assessed by ELISA in a similar was as in Example 12. […]"}, "[10]": {"target": "human Epidermal Growth Factor Receptor (EGFR) (Homo sapiens, UniProt P00533)", "test": "Screening of cyclopeptides binding to human EGFR", "description": "Using the technique described in WO 2007/010525, a series of new peptides (cyclopeptides) binding to human Epidermal Growth Factor Receptor (EGFR) were generated and tested. After identification of several potential peptide, a few further cycles of optimization were performed."}, "[11]": {"target": "human PD-L1 (Homo sapiens, UniProt Q9NZQ7)", "sequence (Q9NZQ7 19-290)": "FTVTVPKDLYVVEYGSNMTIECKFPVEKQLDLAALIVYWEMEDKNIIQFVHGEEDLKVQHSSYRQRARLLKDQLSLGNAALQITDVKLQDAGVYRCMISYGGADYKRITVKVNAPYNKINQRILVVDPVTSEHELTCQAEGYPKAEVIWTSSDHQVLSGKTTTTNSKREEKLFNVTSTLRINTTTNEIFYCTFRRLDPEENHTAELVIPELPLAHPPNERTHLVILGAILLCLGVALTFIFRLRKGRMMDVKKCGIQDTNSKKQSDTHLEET", "test": "Screening of cyclopeptides binding to human PD-L1", "description": "Using the technique described in WO 2007/010525, a series of new peptides (cyclopeptides) binding to binding to a human PD-L1 were generated and tested. After identification of several potential peptides, a few further cycles of optimization were performed."}, "[12]": {"conditions": "1, 3 and 8 μM, 48 hours, images"}}, "note": "Positions of bridges follow the written chain, without caps; N, C: chain ends. No end group written: not given here."}
{"substance": "Cys-Arg-Arg-Gly-Ser-Arg-Ala-Ser-Gly-Ala-His-Cys (CRRGSRASGAHC; disulfide 1-12) [Tox2]", "values": [{"measurement": "binding to eEF2 (ELISA signal)", "setting": "[1]", "result": "strongest effect"}, {"measurement": "GFP fluorescence (extent of protein synthesis)", "setting": "[2]", "result": "highest effect"}]}
{"substance": "E13.3-PEG: E13.3 bound to 8 arm PEG Succinimidyl Carboxymethyl Ester, MW 73,000 (Ac-CHPGDKQEDPNCLQADK; not fully specified; cysteine pairing not given here; also: one amine Dde-protected, site not given here)", "values": [{"measurement": "viability of cancer cells", "setting": "[3]", "result": "successfully reduce the viability"}, {"measurement": "t0.5 in blood", "setting": "[4]; bound to 8-armed PEG", "result": "about 3.5 hours"}, {"measurement": "interaction with and internalization by cancer cells isolated from tumor", "setting": "[5]; 1 hour and 24 hour after IV injection", "result": "most of the cancer cells interact with E13.3-PEG and internalize the fluorescent peptide"}, {"measurement": "fluorescence in kidney and liver", "setting": "[5]; IV, NCI-H1650 xenograft mice", "result": "fast increase in the fluorescence in kidney and liver with a typical elimination curve afterwards"}, {"measurement": "fluorescence in tumor (cancer cells)", "setting": "[5]; IV, NCI-H1650 xenograft mice", "result": "accumulated in the cancer cells"}, {"measurement": "viability of cancer cells", "setting": "[6]", "result": "successfully reduce the viability"}]}
{"substance": "PEG-E13.3-Tox1-Tox2: multi-arm-PEG scaffold bound to E13.3 targeting peptide and a combination of Tox1 and Tox2 (peptide 1 Ac-CHPGDKQEDPNCLQADK; peptide 2 CSARWGPTMPWC; peptide 3 CRRGSRASGAHC; not fully specified (bridges); cysteine pairing not given here; also: multi-arm PEG scaffold carrying E13.3, Tox1 and Tox2)", "values": [{"measurement": "effect on cell aggregates / proportion of dead cells", "setting": "[7]; [12]", "result": "proportion of dead cells increased"}, {"measurement": "potency of cell death compared with the BIM construct", "setting": "[7]; images at 48 hours", "result": "more potent"}, {"measurement": "effect on cell aggregates / proportion of dead cells", "setting": "[8]; [12]", "result": "proportion of dead cells increased"}, {"measurement": "potency of cell death compared with the BIM construct", "setting": "[8]; images at 48 hours", "result": "more potent"}]}
{"substance": "CHPGDKQEDPNCLQADK [E13.3]", "values": [{"measurement": "Normalized Percent of EGFR autophosphorylation inhibition", "setting": "[9]; A431, EGF 50 ng/ml, peptide 0.2 mg/ml, 7.5 min at 37° C., phospho-EGFR (Tyr1045)", "result": 99.4, "unit": "%"}, {"measurement": "IC50", "setting": "[9]; Example 12, read-out: calculated IC50 of EGFR autophosphorylation inhibition", "result": 2000, "unit": "nM"}, {"measurement": "affinity to the receptor at its binding site", "setting": "[10]", "result": "high affinity"}, {"measurement": "t0.5 in blood", "setting": "[4]; free peptide", "result": "about several"}]}
{"substance": "CysGluGlyLeuProAlaAspTrpAlaAlaAlaCys (CEGLPADWAAAC; also: cyclic, mode not given here) [PD-L1-GR]", "values": [{"measurement": "affinity to the receptor at its binding site", "setting": "[11]", "result": "high affinity"}]}
{"substance": "Cys-Ser-Ala-Arg-Trp-Gly-Pro-Thr-Met-Pro-Trp-Cys (CSARWGPTMPWC; disulfide 1-12) [Tox1]", "values": [{"measurement": "GFP fluorescence (extent of protein synthesis)", "setting": "[2]", "result": "highest effect"}]}
